This is an account of results in ChEMBL document CHEMBL1201862, “PubChem BioAssay data set” (2004).

Molecules are shown by their SMILES. Active and inactive are the calls of the source.

Experiment [1] deals with T1, Ubiquitin-conjugating enzyme E2 N (Homo sapiens, UniProt P61088).
T1 sequence (P61088 whole entry): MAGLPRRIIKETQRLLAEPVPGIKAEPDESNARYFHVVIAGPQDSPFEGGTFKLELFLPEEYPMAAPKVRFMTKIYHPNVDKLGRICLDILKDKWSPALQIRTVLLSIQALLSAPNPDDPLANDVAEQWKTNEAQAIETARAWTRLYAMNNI
The class given is functional.

Experiment [2] deals with T2, Rac GTPase-activating protein 1 (Homo sapiens, UniProt Q9H0H5).
T2 sequence (Q9H0H5 whole entry): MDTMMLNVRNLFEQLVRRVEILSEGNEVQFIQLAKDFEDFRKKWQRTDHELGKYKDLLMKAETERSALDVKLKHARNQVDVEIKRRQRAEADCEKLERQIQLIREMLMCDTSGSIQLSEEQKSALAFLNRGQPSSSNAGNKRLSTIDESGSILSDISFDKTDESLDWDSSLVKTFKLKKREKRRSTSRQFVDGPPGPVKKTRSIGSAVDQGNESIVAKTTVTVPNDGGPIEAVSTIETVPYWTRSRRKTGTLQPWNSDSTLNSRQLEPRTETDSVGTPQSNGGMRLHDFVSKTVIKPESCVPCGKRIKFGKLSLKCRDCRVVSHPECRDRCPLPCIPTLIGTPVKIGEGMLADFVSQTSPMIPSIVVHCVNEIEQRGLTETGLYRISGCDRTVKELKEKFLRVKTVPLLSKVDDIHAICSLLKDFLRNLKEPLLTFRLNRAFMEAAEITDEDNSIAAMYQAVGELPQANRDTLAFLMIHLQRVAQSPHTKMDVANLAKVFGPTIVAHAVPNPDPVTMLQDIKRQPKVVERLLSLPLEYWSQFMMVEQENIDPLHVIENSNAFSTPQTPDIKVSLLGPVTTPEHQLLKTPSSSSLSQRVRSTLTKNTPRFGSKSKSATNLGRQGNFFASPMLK
The experiment in a line: blockers of MgcRacGAP-driven Rac1 GTP hydrolysis – biochemical, ADP Hunter fluorescence, primary and confirmatory, confirmation (AID 624330). The format is functional.

Experiment [3] deals with T3, Carboxy-terminal domain RNA polymerase II polypeptide A small phosphatase 1 (Homo sapiens, UniProt Q9GZU7).
T3 sequence (Q9GZU7 whole entry): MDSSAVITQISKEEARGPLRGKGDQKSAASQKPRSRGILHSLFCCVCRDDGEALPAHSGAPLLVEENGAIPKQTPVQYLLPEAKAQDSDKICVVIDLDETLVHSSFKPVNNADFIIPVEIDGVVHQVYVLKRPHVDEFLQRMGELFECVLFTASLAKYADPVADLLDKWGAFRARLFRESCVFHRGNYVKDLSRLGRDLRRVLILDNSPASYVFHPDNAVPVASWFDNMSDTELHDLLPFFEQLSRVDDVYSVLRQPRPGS
Description: CTDSP1 inhibitors, concentration-response, biochemical, absorbance readout, ultra-high-throughput screen actives (AID 540297). The class given is functional.

A further experiment concerns the target Nonstructural protein 1 (Influenza A virus, UniProt Q194T2). The class given is functional, Influenza A virus (A/California/07/2009(H1N1)).
Experiment [4] addresses T4, Corticotropin-releasing factor receptor 2/Corticotropin-releasing factor-binding protein (Homo sapiens, UniProt P24387+Q13324).
T4 sequence (Q13324 whole entry): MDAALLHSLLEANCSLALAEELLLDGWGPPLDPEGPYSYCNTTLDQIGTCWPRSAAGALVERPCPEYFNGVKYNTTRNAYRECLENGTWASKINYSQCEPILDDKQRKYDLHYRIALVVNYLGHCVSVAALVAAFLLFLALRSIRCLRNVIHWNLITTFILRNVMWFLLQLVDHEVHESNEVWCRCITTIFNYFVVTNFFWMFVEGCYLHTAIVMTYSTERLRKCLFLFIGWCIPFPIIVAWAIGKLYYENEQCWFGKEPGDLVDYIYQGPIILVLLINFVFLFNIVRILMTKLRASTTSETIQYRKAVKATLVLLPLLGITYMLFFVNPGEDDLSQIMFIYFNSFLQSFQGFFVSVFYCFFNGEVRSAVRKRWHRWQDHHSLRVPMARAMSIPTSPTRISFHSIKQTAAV
T4 sequence (P24387 whole entry): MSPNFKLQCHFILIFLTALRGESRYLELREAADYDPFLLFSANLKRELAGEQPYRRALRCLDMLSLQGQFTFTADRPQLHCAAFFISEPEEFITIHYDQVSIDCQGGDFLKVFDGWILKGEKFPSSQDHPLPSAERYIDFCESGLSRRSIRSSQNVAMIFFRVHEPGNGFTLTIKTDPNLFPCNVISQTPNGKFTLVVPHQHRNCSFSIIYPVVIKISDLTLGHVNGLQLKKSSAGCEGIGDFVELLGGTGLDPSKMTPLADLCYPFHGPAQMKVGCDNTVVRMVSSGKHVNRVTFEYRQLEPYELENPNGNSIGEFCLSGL
The experiment in a line: Dose Response confirmation of uHTS hits for small molecule antagonists of the CRF-binding protein and CRF-R2 receptor complex. The settings on record: read-out: IC50_Mean. The format is functional.

Experiment [5] concerns the target T4, Corticotropin-releasing factor receptor 2/Corticotropin-releasing factor-binding protein. The experiment in a line: activators of CRF receptor 2 with binding protein – uHTS hits, confirmation (AID 602473). The format is functional. The settings on record: read-out: EC50_Mean.
Experiment [6] can be described thus: NIH-3T3 fibroblast cytotoxicity, dose response, cytotoxicity control, cell-based, fluorescence, Alamar Blue, secondary assay (AID 2327).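 Further: NIH-3T3 mouse fibroblasts cultured with fluconazole at 8 µg/mL.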 The format is functional. On the technique in general: The colour change of resazurin is a common sign of viable cells or microbes.
The subject of experiment [7] is Streptococcus sp. 'group A'. Description: Streptococcus pyogenes SK(-)GAS viability under kanamycin – luminescence, BacTiterGlo, confirmation, counter-screen for streptokinase expression inhibitor project, dose response (AID 1900). The class given is functional, organism-based. Background: Counterscreens check selectivity or assay interference.
Another experiment addresses T5, Streptokinase A (Streptococcus pyogenes serotype M1, UniProt P10520).
T5 sequence (P10520 whole entry): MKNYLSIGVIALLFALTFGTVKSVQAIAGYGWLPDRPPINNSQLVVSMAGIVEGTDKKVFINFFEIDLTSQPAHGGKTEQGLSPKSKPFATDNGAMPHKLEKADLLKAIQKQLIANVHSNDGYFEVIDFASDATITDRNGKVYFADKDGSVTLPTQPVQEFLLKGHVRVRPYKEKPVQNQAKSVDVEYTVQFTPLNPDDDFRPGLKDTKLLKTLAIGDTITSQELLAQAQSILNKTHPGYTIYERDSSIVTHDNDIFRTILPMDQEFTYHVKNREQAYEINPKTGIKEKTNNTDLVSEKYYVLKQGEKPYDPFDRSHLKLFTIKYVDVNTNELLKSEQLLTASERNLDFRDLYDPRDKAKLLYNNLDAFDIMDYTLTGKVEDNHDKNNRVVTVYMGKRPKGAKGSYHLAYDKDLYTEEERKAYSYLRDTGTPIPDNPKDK
Description: viability-normalized secreted streptokinase activity reduction – plasminogen activation absorbance, OD405, dose response (AID 1914).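 Further: secreted streptokinase activity via plasminogen activation per viability signal from cell pellet.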 The class given is functional, Streptococcus pyogenes M1 GAS.

Experiment [8] can be described thus: fluconazole-exposed Candida albicans growth modulators – fluorescence, retest, confirmation (AID 2467). The class given is functional, cell-based.
The subject of a further experiment is Streptococcus. The experiment in a line: GAS UMAA2166 growth inhibition – luminescence, BacTiterGlo, counter-screen for streptokinase expression inhibitor project, dose response (AID 1915).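 Further: potency for reduction of bacterial viability or growth.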 The class given is functional, organism-based.
The target of another experiment is T6, Protein skinhead-1 (Caenorhabditis elegans, UniProt P34707).
T6 sequence (P34707 whole entry): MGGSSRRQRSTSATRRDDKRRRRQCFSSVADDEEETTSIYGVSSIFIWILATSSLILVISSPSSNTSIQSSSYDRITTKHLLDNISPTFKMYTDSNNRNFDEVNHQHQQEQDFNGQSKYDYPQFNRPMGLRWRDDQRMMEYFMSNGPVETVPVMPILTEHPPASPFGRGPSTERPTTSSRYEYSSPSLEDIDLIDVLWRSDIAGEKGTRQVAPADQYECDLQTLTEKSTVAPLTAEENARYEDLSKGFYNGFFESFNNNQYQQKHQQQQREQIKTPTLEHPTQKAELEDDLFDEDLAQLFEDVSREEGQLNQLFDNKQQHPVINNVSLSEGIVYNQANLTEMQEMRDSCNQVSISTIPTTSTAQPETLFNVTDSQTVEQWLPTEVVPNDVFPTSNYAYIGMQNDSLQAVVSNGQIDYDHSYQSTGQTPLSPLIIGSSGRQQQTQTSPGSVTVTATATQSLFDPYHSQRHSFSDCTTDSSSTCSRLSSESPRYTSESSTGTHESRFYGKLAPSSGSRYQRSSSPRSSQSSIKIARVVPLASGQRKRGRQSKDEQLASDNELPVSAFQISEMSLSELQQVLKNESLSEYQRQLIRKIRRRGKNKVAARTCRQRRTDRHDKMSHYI
The format is functional.

Nonstructural protein 1, sequence (Q194T2 whole entry): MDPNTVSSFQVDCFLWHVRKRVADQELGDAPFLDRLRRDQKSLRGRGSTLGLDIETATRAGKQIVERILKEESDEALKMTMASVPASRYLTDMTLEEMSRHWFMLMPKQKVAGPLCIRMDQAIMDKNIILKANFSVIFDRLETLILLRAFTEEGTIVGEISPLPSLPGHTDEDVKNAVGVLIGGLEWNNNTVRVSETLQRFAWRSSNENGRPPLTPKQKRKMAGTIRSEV

Consider `C#CCOCCOCCOCCNc1nc(N2CCOCC2)nc(N2CCN(C(=O)CCCCCCCCCCNC(=O)[C@H](CO)n3cc(CCCCCN)nn3)CC2)n1`, for which the IC50 in [1] is > 20 µM (inactive).
For the compound `CCOc1ccc(N)cc1OC`, the IC50 in [2] was 42.9 µM (active).
On to `Cc1c(CC(=O)O)c(=O)oc2c(C)c3occ(-c4ccc(Br)cc4)c3cc12`, for which, in experiment [3], the IC50 is 7.37 µM (active).
As for `COc1ccc(C(CCNCc2ccc(N(C)C)cc2)C(C)C)cc1` (configuration not stated), the IC50 at Nonstructural protein 1 is 39.1 µM (active).
As for `COc1ccc(F)cc1S(=O)(=O)NCC(=O)NCc1cc(=O)n(C)c(=O)n1C`, in experiment [4], the IC50 was > 47.1 µM (inactive). For the same compound, the EC50 in experiment [5] is > 53 µM (inactive).
Consider `c1ccc(-c2ccc(SCc3cccnc3)nn2)nc1`, for which the IC50 at Nonstructural protein 1 is 5.07 µM (active).
As to `Cc1ccccc1CN1CCC(CNC(=O)C2CCCN(c3ncnc4c3nc3n4CCCCC3)C2)CC1` (configuration not stated), in experiment [1], the IC50 is > 20 µM (inactive).
With `COC(=O)c1cc(NCc2ccccc2F)ccc1N1CCOCC1`, the IC50 in experiment [2] was 168 µM (active).
`OCCN1CCN(Cc2ccc3ccccc3c2)CC1`: the IC50 in experiment [2] is 95.6 µM (active).
Take `CCOc1cccc(/C=N/NC(=S)NCCN2CCOCC2)c1O`: the IC50 on Nonstructural protein 1 is 16.5 µM (active).
Turning to `N#CCSc1nc2sccc2c(=O)n1-c1ccccc1`, the IC50 in [4] was > 47.1 µM (inactive). Besides, the EC50 in [5] was > 53 µM (inactive).
`COc1cc(OC)c2c(c1C(CCN1CCOCC1)c1ccc(N(C)C)cc1)OC(=O)CC2c1ccc(N(C)C)cc1` (configuration not stated): the IC50 on Nonstructural protein 1 is 14.5 µM (active).
For the compound `Cc1cc(C(=O)COc2ccc3ccc(=O)oc3c2)c(C)n1Cc1cccs1`, the IC50 in experiment [3] was 6.2 µM (active).
Still for that read-out and setting: the value for `O=C(Nc1cc(S(=O)(=O)N2CCCCC2)ccc1Cl)C1COc2ccccc2O1` (configuration not stated) was 46.4 µM (active).
For `O=C(Cc1ccccc1)N/N=C/c1ccc(OCC(=O)Nc2ccccc2)cc1`, the IC50 in [3] was 10.2 µM (active).
With `CCCCCc1cc(=O)oc2c(C(CCN3CCCC3)c3cc(OC)c(OC)c(OC)c3)c(OC)cc(OC)c12` (configuration not stated), the IC50 in experiment [1] was > 20 µM (inactive).
`O=C(COc1cccc2c1CCN(Cc1ccc(Br)cc1)C2=O)NCc1ccco1`: the IC50 in experiment [4] is > 47.1 µM (inactive). For the same compound, the EC50 in experiment [5] was > 53 µM (inactive).
As to `COC(=O)C1=C(C)N(Cc2ccccc2)C(NCc2cc(OC)c(OC)c(OC)c2)=N[C@H]1c1ccc(Br)cc1`, in experiment [1], the IC50 is > 20 µM (inactive).
On the same count and under the same terms, the value for `CCOC(=O)C1=C(c2ccccc2)O/C(=C(\C(=O)OC)C(F)(F)F)S1` was > 20 µM (inactive); that for `O=C1NC2(CCCCCC2)N=C1c1ccc(Br)cc1` was > 20 µM (inactive).
Regarding `COc1cc(-c2nc3cnccn3c2Nc2ccc(C)cc2)ccc1O`, in experiment [2], the IC50 was 29.3 µM (active).
Take `Cc1ncc(CO)c(/C=N/NC(=S)Nc2ccc(Cl)c(Cl)c2)c1O`: the EC50 in [6] is 45.4 µM (inconclusive); in experiment [7] it was 4.1 µM (active); at Streptokinase A, > 150 µM (not active); in experiment [8], > 38 µM (not active); in the experiment on Streptococcus, 91.4 µM (active). In experiment [1], the IC50 is > 20 µM (inactive).
Regarding `CCCC(=O)NC(=S)Nc1cccc2c(O)cccc12`, in experiment [2], the IC50 is 47.7 µM (active).
Same read-out and setting: the value for `O=C(COc1ccccc1)N1CCN(C2CCCC2)CC1` was 127 µM (active).
As to `C=CCOc1ccc(/C=C\c2nc(O)c([N+](=O)[O-])c(O)n2)cc1OC`, the IC50 in experiment [3] was 13.7 µM (active).
As for `Nc1cccc2c1C(=O)c1ccc(Cl)cc1C2=O`, the IC50 on Nonstructural protein 1 is 24.6 µM (active); on Protein skinhead-1 it was > 100 µM (inactive).
For `Cc1cc(C)nc(SCc2nnc(SCc3ccc([N+](=O)[O-])cc3)n2Cc2ccco2)n1`, the IC50 in experiment [4] was > 47.1 µM (inactive). In addition, the EC50 in [5] is > 53 µM (inactive).
